# Paper PMC7559897, “Designed Antimicrobial Peptides Against Trauma-Related Cutaneous Invasive Fungal Wound Infections” (Journal of Fungi, 2020)
# Bridge positions count the residues as written; N and C are the ends. Peptide text beside a SMILES is read from it.
# Columns and labels:
# [1] = system: Absidia corymbifera NRRL 6251; format: cell-based; conditions: potato dextrose broth, 24 h, 37 °C, OD600 <0.1 in at least 3 of 4 wells, dose range 2 to 128 µg/mL; shaded values previously reported ref 17
# Method in brief: (§1)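 Overnight TSB cultures (37 °C) diluted to approx. 10^6 CFU/mL, 2X CAMHB; fungal isolate in potato dextrose broth. dAMP 2-fold series 2–128 μg/mL, n=4. 24 h, 37 °C, A600; MIC: ≥3/4 wells OD <0.1.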
# [2] = system: Aspergillus flavus MYA-1004; format: cell-based; conditions: potato dextrose broth, 24 h, 37 °C, OD600 <0.1 in at least 3 of 4 wells, dose range 2 to 128 µg/mL; shaded values previously reported ref 17
# Method in brief: as §1
# [3] = system: Aspergillus flavus MYA-3651; format: cell-based; conditions: potato dextrose broth, 24 h, 37 °C, OD600 <0.1 in at least 3 of 4 wells, dose range 2 to 128 µg/mL; shaded values previously reported ref 17
# Method in brief: as §1
# [4] = system: Aspergillus fumigatus 9648; format: cell-based; conditions: potato dextrose broth, 24 h, 37 °C, OD600 <0.1 in at least 3 of 4 wells, dose range 2 to 128 µg/mL; shaded values previously reported ref 17
# Method in brief: as §1
# [5] = system: Aspergillus fumigatus 9651; format: cell-based; conditions: potato dextrose broth, 24 h, 37 °C, OD600 <0.1 in at least 3 of 4 wells, dose range 2 to 128 µg/mL; shaded values previously reported ref 17
# Method in brief: as §1
# Candida albicans Y-326 = format: cell-based; conditions: potato dextrose broth, 24 h, 37 °C, OD600 <0.1 in at least 3 of 4 wells, dose range 2 to 128 µg/mL; shaded values previously reported ref 17
# Method in brief: as §1
# Candida albicans Y-6359 = format: cell-based; conditions: potato dextrose broth, 24 h, 37 °C, OD600 <0.1 in at least 3 of 4 wells, dose range 2 to 128 µg/mL; shaded values previously reported ref 17
# Method in brief: as §1
# Candida krusei Y-27803 = format: cell-based; conditions: potato dextrose broth, 24 h, 37 °C, OD600 <0.1 in at least 3 of 4 wells, dose range 2 to 128 µg/mL; shaded values previously reported ref 17
# Method in brief: as §1
# Candida krusei Y-27825 = format: cell-based; conditions: potato dextrose broth, 24 h, 37 °C, OD600 <0.1 in at least 3 of 4 wells, dose range 2 to 128 µg/mL; shaded values previously reported ref 17
# Method in brief: as §1
# [6] = system: Candida parapsilosis Y-1761; format: cell-based; conditions: potato dextrose broth, 24 h, 37 °C, OD600 <0.1 in at least 3 of 4 wells, dose range 2 to 128 µg/mL; shaded values previously reported ref 17
# Method in brief: as §1
# [7] = system: Candida parapsilosis Y-1763; format: cell-based; conditions: potato dextrose broth, 24 h, 37 °C, OD600 <0.1 in at least 3 of 4 wells, dose range 2 to 128 µg/mL; shaded values previously reported ref 17
# Method in brief: as §1
# E. cloacae 6053 = format: cell-based; conditions: cation adjusted Mueller-Hinton broth, ~10^6 CFU/mL, 24 h, 37 °C, OD600 <0.1 in at least 3 of 4 wells, 2-128 μg/mL; shaded values previously reported ref 18
# Method in brief: as §1
# E. cloacae 6054 = format: cell-based; conditions: cation adjusted Mueller-Hinton broth, ~10^6 CFU/mL, 24 h, 37 °C, OD600 <0.1 in at least 3 of 4 wells, 2-128 μg/mL; shaded values previously reported ref 18
# Method in brief: as §1
# [8] = system: Fusarium solani NRRL 28548; format: cell-based; conditions: potato dextrose broth, 24 h, 37 °C, OD600 <0.1 in at least 3 of 4 wells, dose range 2 to 128 µg/mL; shaded values previously reported ref 17
# Method in brief: as §1
# [9] = system: Mucor circinelloides NRRL 3631; format: cell-based; conditions: potato dextrose broth, 24 h, 37 °C, OD600 <0.1 in at least 3 of 4 wells, dose range 2 to 128 µg/mL; shaded values previously reported ref 17
# Method in brief: as §1
# S. epidermis ATCC 51625 = format: cell-based; conditions: cation adjusted Mueller-Hinton broth, ~10^6 CFU/mL, 24 h, 37 °C, OD600 <0.1 in at least 3 of 4 wells, 2-128 μg/mL; shaded values previously reported ref 18
# Method in brief: as §1
# S. aureus 6061 = format: cell-based, Staphylococcus aureus; conditions: cation adjusted Mueller-Hinton broth, ~10^6 CFU/mL, 24 h, 37 °C, OD600 <0.1 in at least 3 of 4 wells, 2-128 μg/mL; shaded values previously reported ref 18
# Method in brief: as §1
# S. aureus B-767 = format: cell-based, Staphylococcus aureus; conditions: cation adjusted Mueller-Hinton broth, ~10^6 CFU/mL, 24 h, 37 °C, OD600 <0.1 in at least 3 of 4 wells, 2-128 μg/mL; shaded values previously reported ref 18
# Method in brief: as §1
smiles,measurement,setting,value
"CC[C@H](C)[C@@H]1NC(=O)CNC(=O)[C@H](CCCCN)NC(=O)[C@H](Cc2ccc(O)cc2)NC(=O)[C@@H]2CSSC[C@H](NC1=O)C(=O)N[C@@H](Cc1ccccc1)C(=O)N[C@@H](CCCCN)C(=O)N[C@@H](CCCCN)C(=O)N[C@H](C(=O)N[C@@H](CCCCN)C(N)=O)CSSC[C@H](NC(=O)[C@H](Cc1ccccc1)NC(=O)[C@@H](N)CCCNC(=N)N)C(=O)N[C@@H](Cc1c[nH]c3ccccc13)C(=O)N[C@@H](CCCCN)C(=O)N[C@@H](C(C)C)C(=O)N2 [RP557] (H-RFCWKVCYKGICFKKCK-NH2; disulfide 3-16, 7-12)",MIC against Absidia corymbifera NRRL 6251,[1],2 µg/mL
same,MIC against Aspergillus flavus MYA-1004,[2],64 µg/mL
same,MIC against Aspergillus flavus MYA-3651,[3],64 µg/mL
same,MIC against Aspergillus fumigatus 9648,[4],64 µg/mL
same,MIC against Aspergillus fumigatus 9651,[5],64 µg/mL
same,MIC against Candida albicans Y-326,Candida albicans Y-326,16 µg/mL
same,MIC against Candida albicans Y-6359,Candida albicans Y-6359,4 µg/mL
same,MIC against Candida krusei Y-27803,Candida krusei Y-27803,16 µg/mL
same,MIC against Candida krusei Y-27825,Candida krusei Y-27825,16 µg/mL
same,MIC against Candida parapsilosis Y-1761,[6],16 µg/mL
same,MIC against Candida parapsilosis Y-1763,[7],2 µg/mL
same,MIC against E. cloacae 6053,E. cloacae 6053,8 µg/mL
same,MIC against E. cloacae 6054,E. cloacae 6054,8 µg/mL
same,MIC against Fusarium solani NRRL 28548,[8],2 µg/mL
same,MIC against Mucor circinelloides NRRL 3631,[9],64 µg/mL
same,MIC against S. epidermis ATCC 51625,S. epidermis ATCC 51625,8 µg/mL
same,MIC against S. aureus 6061,S. aureus 6061,8 µg/mL
same,MIC against S. aureus B-767,S. aureus B-767,4 µg/mL
